Measurements from patent US20230037188A1, “TASTEFUL NATURAL SWEETENER AND FLAVOR” (EPC Natural Products Co., Ltd., priority 2018, published 2023).
Entries after “also recorded” stand apart in the source; their conditions may differ.

Key:
[1] = Kinetics of reaction (degradation of Phe with Reb-A, Gluc, Xyl, Suc) in dependence of pH-conditions, HPLC/MS; format: physicochemical; settings: for % formation from degraded Reb-A: reaction of Phe and Reb-A
Experimental: Quantitative evaluation was performed using external standardization.

[2] = Sensory evaluation of combinations of EPCalin (Thaumatin), GSGs and SGs and NHDC in water; format: in vivo; settings: 4.5 ppm Thaumatin (10 ppm EPCalin) and/or 50 ppm GSGs and SGs, NHDC 1-5 ppm
Experimental: 4.5 ppm Thaumatin (equivalent to 10 ppm EPCalin) were dissolved in water. Increasing amounts of NHDC (1-5 ppm) were added to the solution and the sensory properties were evaluated.
50 ppm (GSGs and SGs) were dissolved in water. Increasing amounts of NHDC (1-5 ppm) were added to the solution and the sensory properties were evaluated.
50 ppm (GSGs and SGs) and 4.5 ppm Thaumatin (equivalent to 10 ppm EPCalin) were dissolved in water. Increasing amounts of NHDC (1-5 ppm) were added to the solution and the sensory properties were evaluated.
Sweetness intensity was rated on 5-point scale

[3] = Blind descriptive sensory evaluation by trained tasters of differently prepared Stevia-derived MRPs in beverages and ketchup; format: in vivo; settings: added before heating to xylose, phenylalanine and SGA; 150 μl sample per 100 ml
Experimental: Each sample was added at a concentration of 1500 ppm to freshly prepared lemon juice (squeezed lemons diluted 1:5 with tap water) containing 4% sugar.
Each sample was added at a concentration of 1000 ppm to Felix Ketchup no added sugar (31.12.2019 L8352, 11:48).
Before tasting the tasters discussed the upcoming series of samples and tasted samples with the predetermined attributes (sweetness) with varying intensities to find a common description. Four trained tasters blind taste tested independently all samples of a series. They were allowed to re-taste and prepared notes for sensory attributes perceived including the relative intensity.
In the last step the attributes noted were discussed openly to find an acceptable description. In case that more than 1 taster disagreed with the description, the tasting was repeated.
Before tasting the tasters discussed the upcoming series of samples and tasted samples with the predetermined attributes with varying intensities to find commonality for the description. Four trained tasters blind taste tested independently all samples of a series. They were allowed to re-taste and made notes for the sensory attributes perceived including the relative intensity.
In the last step the attributes noted were discussed openly to find an agreeable description. In case that more than 1 taster disagreed with thedescription, the tasting was repeated. […]

[4] = Assay to test DPPH radical-scavenging activity; settings: combinations of amino acids and Reb-A, 100° C., pH 7.8; iron-III reduction and radical scavenging (FIGS. 49, 50)
Experimental: 1 mg 1,1-Diphenyl-2-picrylhydrazyl radical (DPPH)/ml ethanol, dilution to assay concentration were prepared in ethanol (40 μg/mL); Calibration samples were prepared with Ascorbic acid in a concentration of 0-10 μg/mL; as a negative control sample, water was used.
Samples in aqueous solution were used as such or diluted with water.
A 0.1 ml sample (or calibration standard) was mixed with 3.9 ml solution of DPPH° (100 μMolar) and reacted while protected from light at room temperature for 30 min. Absorbance was determined at 517 nm against ethanol.
10 mM of amino acid and/or 10 mM sugar were dissolved in 10 ml 0.1 mM KH2PO4-buffer, pH=7.8.
The samples were kept at 100° C. in sealed glass vials (Pyrex 15 ml with screw caps) for 0 (before reaction), 2.5 or 5.0 hours. Thereafter the samples were transferred to an ice water bath and cooled down to room temperature. These samples were diluted 1:10 and used for the test assay for anti-oxidant potential.

## OC[C@H]1OC(O)[C@H](O)[C@@H](O)[C@@H]1O (stereo partly shown) [Glu]
[1]; reaction of Phe and Gluc, pH = 7.0, 1.0 h, 120° C.
  % degradation: 4.6%

## COc1ccc(CCC(=O)c2c(O)cc(O[C@@H]3O[C@H](CO)[C@@H](O)[C@H](O)[C@H]3O[C@@H]3O[C@@H](C)[C@H](O)[C@@H](O)[C@H]3O)cc2O)cc1O [NHDC, Neohesperidin dihydrochalcone]
[2]
  sweetness, onset, mouth-feel and lingering in words: long lasting lingering; also recorded: boosts the lingering
[3]
  taste profile in Redbull sugar free: improved the mouth-feel and harmony of taste impression yielding a substantially improved taste profile

## C=C1C[C@@]23CC[C@H]4[C@@](C)(CCC[C@@]4(C)C(=O)O[C@@H]4O[C@H](CO)[C@@H](O)[C@H](O)[C@H]4O)[C@@H]2CC[C@]1(O[C@@H]1O[C@H](CO)[C@@H](O)[C@H](O[C@@H]2O[C@H](CO)[C@@H](O)[C@H](O)[C@H]2O)[C@H]1O[C@@H]1O[C@H](CO)[C@@H](O)[C@H](O)[C@H]1O)C3 [Reb-A, Rebaudioside A]
[4]
  anti-oxidant properties: substantial anti-oxidant properties

## C=C1C[C@@]23CC[C@H]4[C@@](C)(CCC[C@@]4(C)C(=O)O)[C@@H]2CC[C@]1(O[C@@H]1O[C@H](CO)[C@@H](O)[C@H](O[C@@H]2O[C@H](CO)[C@@H](O)[C@H](O)[C@H]2O)[C@H]1O[C@@H]1O[C@H](CO)[C@@H](O)[C@H](O)[C@H]1O)C3 [Reb-B]
[1]; pH = 5.5
  % formation from degraded Reb-A: 23.1%
[1]; pH = 7.0
  % formation from degraded Reb-A: 22.7%
[1]; pH = 8.5
  % formation from degraded Reb-A: 19.1%
